# ChEMBL document CHEMBL1157899, “Molecular modelling, synthesis and acetylcholinesterase inhibition of ethyl 5-amino-2-methyl-6,7,8,9-tetrahydrobenzo[b][1,8]naphthyridine-3-carboxylate” (Bioorg Med Chem Lett, 2010)
# Columns and labels:
# Acetylcholinesterase [1] = biological target: Acetylcholinesterase (Electrophorus electricus, UniProt O42275); assay: Inhibition of electric eel AChE
# Cholinesterase = Cholinesterase (Equus caballus, UniProt P81908); assay: Inhibition of Equus caballus BuChE
# Acetylcholinesterase [2] = biological target: Acetylcholinesterase (Homo sapiens, UniProt P22303); assay: Inhibition of human AChE
# Acetylcholinesterase (Homo sapiens, UniProt P22303), sequence (P22303 whole entry): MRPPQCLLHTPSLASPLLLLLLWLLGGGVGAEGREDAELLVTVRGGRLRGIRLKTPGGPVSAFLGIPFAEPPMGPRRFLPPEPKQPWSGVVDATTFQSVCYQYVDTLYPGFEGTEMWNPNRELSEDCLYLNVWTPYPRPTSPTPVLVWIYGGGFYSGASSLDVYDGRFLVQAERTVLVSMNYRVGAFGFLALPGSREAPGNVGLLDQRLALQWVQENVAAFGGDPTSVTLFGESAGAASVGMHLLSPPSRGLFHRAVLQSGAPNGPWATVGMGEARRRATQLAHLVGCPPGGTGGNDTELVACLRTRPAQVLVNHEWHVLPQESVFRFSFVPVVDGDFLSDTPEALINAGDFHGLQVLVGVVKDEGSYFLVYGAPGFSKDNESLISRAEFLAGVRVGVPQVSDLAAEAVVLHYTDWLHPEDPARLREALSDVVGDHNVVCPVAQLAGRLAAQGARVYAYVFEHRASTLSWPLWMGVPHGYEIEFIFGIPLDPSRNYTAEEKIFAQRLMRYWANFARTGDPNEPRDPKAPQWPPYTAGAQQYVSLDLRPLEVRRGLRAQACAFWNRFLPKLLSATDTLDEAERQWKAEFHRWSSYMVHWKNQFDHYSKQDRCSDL
# Acetylcholinesterase (Electrophorus electricus, UniProt O42275), sequence (O42275 whole entry): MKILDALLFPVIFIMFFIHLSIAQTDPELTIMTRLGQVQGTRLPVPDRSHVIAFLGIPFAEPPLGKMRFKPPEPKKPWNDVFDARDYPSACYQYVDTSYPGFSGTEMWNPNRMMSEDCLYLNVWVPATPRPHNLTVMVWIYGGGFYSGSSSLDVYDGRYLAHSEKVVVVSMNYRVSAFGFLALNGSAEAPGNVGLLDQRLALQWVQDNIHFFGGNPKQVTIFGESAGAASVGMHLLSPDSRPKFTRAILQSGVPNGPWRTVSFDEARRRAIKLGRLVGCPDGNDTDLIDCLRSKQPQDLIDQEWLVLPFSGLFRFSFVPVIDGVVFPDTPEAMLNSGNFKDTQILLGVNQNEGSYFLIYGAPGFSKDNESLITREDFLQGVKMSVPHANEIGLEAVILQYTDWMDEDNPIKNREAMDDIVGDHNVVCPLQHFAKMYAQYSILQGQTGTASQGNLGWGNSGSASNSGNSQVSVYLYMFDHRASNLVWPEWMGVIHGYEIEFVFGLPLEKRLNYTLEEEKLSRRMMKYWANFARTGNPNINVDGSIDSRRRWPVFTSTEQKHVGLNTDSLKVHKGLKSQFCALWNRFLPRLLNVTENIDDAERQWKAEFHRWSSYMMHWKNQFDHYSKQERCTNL
# Cholinesterase, sequence (P81908 whole entry): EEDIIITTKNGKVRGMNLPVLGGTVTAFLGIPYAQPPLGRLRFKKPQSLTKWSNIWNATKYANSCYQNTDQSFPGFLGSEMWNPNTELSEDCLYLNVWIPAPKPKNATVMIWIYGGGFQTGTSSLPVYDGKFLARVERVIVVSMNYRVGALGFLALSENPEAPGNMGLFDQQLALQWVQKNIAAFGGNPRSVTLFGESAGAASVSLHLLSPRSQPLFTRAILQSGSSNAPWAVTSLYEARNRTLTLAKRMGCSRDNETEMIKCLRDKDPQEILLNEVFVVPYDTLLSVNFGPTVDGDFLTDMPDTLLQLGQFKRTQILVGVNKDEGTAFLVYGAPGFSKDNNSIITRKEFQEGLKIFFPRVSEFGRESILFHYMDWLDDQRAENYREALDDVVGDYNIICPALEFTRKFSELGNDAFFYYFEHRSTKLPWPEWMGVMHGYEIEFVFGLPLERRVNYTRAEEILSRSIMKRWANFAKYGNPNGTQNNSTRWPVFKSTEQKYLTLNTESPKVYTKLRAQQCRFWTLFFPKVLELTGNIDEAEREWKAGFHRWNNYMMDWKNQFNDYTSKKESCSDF
smiles,measurement,setting,value
Cc1nc2nc3c(c(N)c2cc1C(=O)[O-])CCCC3.[Na+],IC50,Acetylcholinesterase [1],5.3 µM
same,IC50,Cholinesterase,Not Active
CCOC(=O)c1c(C)nc2nc3c(c(N)c2c1-c1ccccc1)CCCC3,IC50,Cholinesterase; read-out: IC50,5.03 µM
Cc1nc2nc3c(c(N)c2cc1C(=O)O)CCCC3,IC50,Acetylcholinesterase [1],15 µM
same,IC50,Cholinesterase,Not Active
CCOC(=O)c1cc2c(N)c3c(nc2nc1C)CCCC3,IC50,Acetylcholinesterase [1],0.06 µM
same,IC50,Cholinesterase; read-out: IC50,12 µM
same,IC50,Acetylcholinesterase [2],0.78 µM
